According to ChEMBL document CHEMBL1148295, “Evaluation and comparison of 3D-QSAR CoMSIA models for CDK1, CDK5, and GSK-3 inhibition by paullones” (J Med Chem, 2004):

Assays:
[1] = molecular target: Cyclin-dependent kinase 5/CDK5 activator 1 (Homo sapiens, UniProt Q00535); type: protein-complex assay
Description: Inhibitory activity against cyclin-dependent kinase 5/p25

[2] = molecular target: Cyclin-dependent kinase 1/cyclin B (Homo sapiens, UniProt O95067+P06493+P14635+Q8WWL7); type: cell-based, Marthasterias glacialis, Oocyte
Cyclin-dependent kinase 1/cyclin B, sequence (P06493 whole entry): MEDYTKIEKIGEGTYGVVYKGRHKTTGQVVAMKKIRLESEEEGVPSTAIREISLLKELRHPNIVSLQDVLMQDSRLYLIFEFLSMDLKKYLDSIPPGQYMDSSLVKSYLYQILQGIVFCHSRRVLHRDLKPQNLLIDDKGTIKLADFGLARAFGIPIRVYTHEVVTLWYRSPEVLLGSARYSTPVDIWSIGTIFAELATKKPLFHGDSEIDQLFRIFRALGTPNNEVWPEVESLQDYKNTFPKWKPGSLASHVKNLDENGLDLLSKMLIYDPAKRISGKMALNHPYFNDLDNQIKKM
Cyclin-dependent kinase 1/cyclin B, sequence (P14635 whole entry): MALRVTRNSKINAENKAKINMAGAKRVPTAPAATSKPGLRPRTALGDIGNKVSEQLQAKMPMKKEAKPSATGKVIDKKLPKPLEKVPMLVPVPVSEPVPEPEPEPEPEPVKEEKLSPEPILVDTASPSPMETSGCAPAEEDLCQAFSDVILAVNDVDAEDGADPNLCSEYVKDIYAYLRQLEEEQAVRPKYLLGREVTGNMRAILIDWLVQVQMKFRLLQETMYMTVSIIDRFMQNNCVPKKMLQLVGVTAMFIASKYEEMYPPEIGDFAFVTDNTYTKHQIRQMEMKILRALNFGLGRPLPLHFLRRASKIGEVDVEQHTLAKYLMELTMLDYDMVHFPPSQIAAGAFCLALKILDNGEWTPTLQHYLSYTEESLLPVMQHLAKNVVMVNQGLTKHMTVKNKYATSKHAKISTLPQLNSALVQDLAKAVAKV
Cyclin-dependent kinase 1/cyclin B, sequence (Q8WWL7 whole entry): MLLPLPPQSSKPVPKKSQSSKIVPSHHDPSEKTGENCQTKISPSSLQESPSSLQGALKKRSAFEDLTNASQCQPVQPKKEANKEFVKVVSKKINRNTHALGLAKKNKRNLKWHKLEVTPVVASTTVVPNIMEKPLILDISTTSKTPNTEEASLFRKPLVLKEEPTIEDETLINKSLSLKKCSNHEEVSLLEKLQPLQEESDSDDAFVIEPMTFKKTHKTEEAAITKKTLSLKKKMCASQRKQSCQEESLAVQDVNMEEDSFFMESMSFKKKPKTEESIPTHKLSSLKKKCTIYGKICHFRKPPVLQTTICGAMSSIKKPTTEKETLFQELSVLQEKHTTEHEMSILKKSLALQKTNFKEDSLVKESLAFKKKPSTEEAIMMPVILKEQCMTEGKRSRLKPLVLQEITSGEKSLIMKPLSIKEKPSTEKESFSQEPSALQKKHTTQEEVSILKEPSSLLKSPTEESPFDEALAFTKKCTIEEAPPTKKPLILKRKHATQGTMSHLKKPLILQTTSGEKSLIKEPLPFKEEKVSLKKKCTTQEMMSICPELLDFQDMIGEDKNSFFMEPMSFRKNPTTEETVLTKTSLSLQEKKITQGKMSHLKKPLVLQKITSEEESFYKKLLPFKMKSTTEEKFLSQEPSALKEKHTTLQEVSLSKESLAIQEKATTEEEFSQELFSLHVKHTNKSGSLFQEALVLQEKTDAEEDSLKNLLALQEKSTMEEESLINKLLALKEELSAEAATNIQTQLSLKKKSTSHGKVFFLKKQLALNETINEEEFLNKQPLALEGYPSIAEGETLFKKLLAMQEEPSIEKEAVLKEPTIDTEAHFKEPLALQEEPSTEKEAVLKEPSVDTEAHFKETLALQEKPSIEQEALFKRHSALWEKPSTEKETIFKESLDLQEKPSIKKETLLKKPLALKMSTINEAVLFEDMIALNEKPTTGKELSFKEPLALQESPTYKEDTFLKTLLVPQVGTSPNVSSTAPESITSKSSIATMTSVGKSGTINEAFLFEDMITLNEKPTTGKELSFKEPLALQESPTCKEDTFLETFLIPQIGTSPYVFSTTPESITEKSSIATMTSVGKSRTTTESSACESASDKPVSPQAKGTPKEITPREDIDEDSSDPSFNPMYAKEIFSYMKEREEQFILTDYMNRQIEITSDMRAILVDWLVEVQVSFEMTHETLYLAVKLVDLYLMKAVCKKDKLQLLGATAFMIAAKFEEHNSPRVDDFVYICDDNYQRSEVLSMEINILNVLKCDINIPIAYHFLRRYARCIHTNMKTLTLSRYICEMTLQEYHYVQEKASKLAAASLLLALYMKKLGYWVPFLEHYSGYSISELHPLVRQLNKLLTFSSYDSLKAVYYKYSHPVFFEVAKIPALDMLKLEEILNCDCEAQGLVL
Cyclin-dependent kinase 1/cyclin B, sequence (O95067 whole entry): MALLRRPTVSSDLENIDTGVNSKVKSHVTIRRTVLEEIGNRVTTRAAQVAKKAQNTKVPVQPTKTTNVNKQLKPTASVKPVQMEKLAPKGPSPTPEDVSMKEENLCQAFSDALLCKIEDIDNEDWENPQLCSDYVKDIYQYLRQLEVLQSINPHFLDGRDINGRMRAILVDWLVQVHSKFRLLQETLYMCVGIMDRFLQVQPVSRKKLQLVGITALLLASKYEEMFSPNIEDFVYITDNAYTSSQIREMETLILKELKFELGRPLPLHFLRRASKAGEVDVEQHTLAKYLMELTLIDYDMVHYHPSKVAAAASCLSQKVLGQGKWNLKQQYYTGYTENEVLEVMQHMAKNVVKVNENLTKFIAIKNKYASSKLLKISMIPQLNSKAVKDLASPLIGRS
Description: Inhibitory activity against cyclin dependent kinase 1-cyclinB extracted from M phase starfish (Marthasterias glacialis) oocytes

Cyclin-dependent kinase 5/CDK5 activator 1, sequence (Q00535 whole entry): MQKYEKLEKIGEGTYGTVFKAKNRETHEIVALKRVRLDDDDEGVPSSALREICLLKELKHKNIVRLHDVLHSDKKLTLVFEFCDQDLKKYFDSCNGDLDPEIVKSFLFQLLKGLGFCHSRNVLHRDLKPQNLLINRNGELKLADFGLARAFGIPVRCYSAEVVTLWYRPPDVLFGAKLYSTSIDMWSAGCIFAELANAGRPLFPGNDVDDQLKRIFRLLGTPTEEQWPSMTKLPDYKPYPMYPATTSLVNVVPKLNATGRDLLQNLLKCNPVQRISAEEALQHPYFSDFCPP
Cyclin-dependent kinase 5/CDK5 activator 1, sequence (Q15078 whole entry, further chain): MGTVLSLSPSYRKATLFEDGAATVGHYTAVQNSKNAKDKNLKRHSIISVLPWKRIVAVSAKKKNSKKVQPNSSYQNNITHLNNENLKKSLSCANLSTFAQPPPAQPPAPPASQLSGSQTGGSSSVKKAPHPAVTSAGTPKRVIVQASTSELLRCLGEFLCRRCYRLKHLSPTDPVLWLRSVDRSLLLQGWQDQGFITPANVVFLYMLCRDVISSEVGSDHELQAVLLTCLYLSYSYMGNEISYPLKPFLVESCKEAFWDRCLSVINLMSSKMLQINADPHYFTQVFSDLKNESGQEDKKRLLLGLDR

Structure (SMILES): Cc1ccc2[nH]c3c(c2c1)CC(=O)Nc1ncccc1-3
- IC50 [1]: 430 µM
- IC50 [2]: 200 µM

Structure (SMILES): CSC1=Nc2ccccc2-c2c(c3cc([N+](=O)[O-])ccc3n2C)C1
- IC50 [1]: 849 µM
- IC50 [2]: 230 µM

Structure (SMILES): CC(=O)Cc1ccc2c(c1)-c1[nH]c3ccc(C(F)(F)F)cc3c1CC(=O)N2
- IC50 [1]: 0.42 µM

Structure (SMILES): COc1ccc2c(c1)NC(=O)Cc1c-2[nH]c2ccc([N+](=O)[O-])cc12
- IC50 [1]: 0.63 µM
- IC50 [2]: 1 µM

Structure (SMILES): O=[N+]([O-])c1ccc2[nH]c3c(c2c1)CC(=S)Nc1ccccc1-3
- IC50 [1]: 1.7 µM
- IC50 [2]: 1.3 µM

Structure (SMILES): O=C1Cc2c([nH]c3ncccc23)-c2ccccc2N1
- IC50 [1]: 3.3 µM

Structure (SMILES): COc1ccc2[nH]c3c(c2c1)CC(=O)Nc1ncccc1-3
- IC50 [1]: 420 µM
- IC50 [2]: 89.9 µM

Structure (SMILES): O=C1Cc2c([nH]c3ccc(Cl)cc23)-c2sccc2N1
- IC50 [1]: 5 µM

Structure (SMILES): O=C1Cc2c([nH]c3ccc(C(F)(F)F)cc23)-c2cccnc2N1
- IC50 [1]: 13 µM
- IC50 [2]: 6 µM

Structure (SMILES): O=C1Cc2c([nH]c3ccc(Cl)cc23)-c2cccnc2N1
- IC50 [1]: 42 µM
- IC50 [2]: 23 µM

Structure (SMILES): O=C1Cc2c([nH]c3ccc([N+](=O)[O-])cc23)-c2sccc2N1
- IC50 [1]: 0.1 µM
- IC50 [2]: 0.08 µM

Structure (SMILES): Cc1ccc2[nH]c3c(c2c1)CC(=O)Nc1ccsc1-3
- IC50 [1]: 40 µM

Structure (SMILES): N#Cc1ccc2[nH]c3c(c2c1)CC(=O)Nc1ccsc1-3
- IC50 [2]: 0.075 µM

Structure (SMILES): SC1=Nc2ccccc2-c2cc(-c3ccccn3)cc(-c3cccs3)c2C1
- IC50 [2]: 33 µM

Structure (SMILES): O=C1Cc2c([nH]c3ccc(Br)cc23)-c2sccc2N1
- IC50 [1]: 4 µM
